pEC50, pIC50: −log10 of the molar value.
Tests used:
[1] = test system: LPS-induced TNF-α release from human peripheral blood mononuclear cells (PBMC); experiment: Inhibition of LPS-induced TNF-α release from human PBMC; format: cell-based; settings: LPS 0.4 ng/mL, 6 h, presence or absence of ICI-118551 not given
Excerpt: Inhibition of Lipopolysaccharide (LPS)-Induced Tumour Necrosis Factor Alpha (TNF-α) Release from Human Peripheral Blood Mononuclear Cells (PBMC)
Human whole blood was drawn from donors and cell purification initiated within two hours. Peripheral blood mononuclear cells (PBMC) were purified using a standard Ficoll gradient purification technique and aliquoted at a concentration of 100,000 cells/well in 96 well plates. Beta-2 adrenoreceptor agonists are also anti-inflammatory for some immune cells expressing the receptor and in this assay they can inhibit tumor necrosis factor-alpha (TNF-α) production. Therefore PBMC were pre-incubated for 30 min in the presence of the beta-2 adrenoreceptor antagonist ICI-118551 (3-(isopropylamino)-1-[(7-methyl-4-indanyl)oxy]butan-2-ol) (10 μM) to determine the PDE4 directed activity of test compounds, and in the absence of ICI-118551 for the combined PDE4 and beta-2 receptor directed activity. Test compounds were dissolved in DMSO and diluted in buffer (final DMSO concentration of 0.1% v/v) and were then added to the cell suspensions and pre-incubated for a further 1 h at 37° C. LPS solution was then added (0.4 ng/mL) and the cells incubated for a further 6 h. At the end of the incubation period the cell supernatants were collected and TNF-α was measured using a Procarta Cytokine Assay Kit (Affymetrix, Santa Clara, Calif.) according to the manufacturers' instructions. Data were analyzed using MiraiBio Masterplex QT v4.0 software (MasterPlex Version 1.0.1.18 Copyright 2008, Hitachi Software Engineering Co., Ltd) and used to extrapolate Mean Fluorescence Intensity (MFI) into concentrations of TNF-α and mean values from replicate wells were determined. Inhibition curves were plotted using a nonlinear curve fit employing a single-site binding model to determine the IC50 value for each test compound in the presence or absence of ICI-118551 using GraphPad Prism 5 for Windows, version 5.02 (GraphPad Software, San Diego Calif.).
EC50 determinations for the compounds presented above are seen in the fourth column of Table 1 (PBMC TNF EC50).

Human recombinant PDE4B2 = target: T1, Human recombinant PDE4B2 (Homo sapiens, UniProt Q07343); experiment: Inhibition of PDE4B2 enzyme activity (PDE Glo Assay); format: biochemical; settings: human recombinant PDE4B2, 50 nM cAMP; read-out: PDE4 IC50
T1 construct: purchased BPS Bioscience
T1 sequence (Q07343 1-564 isoform Q07343-2): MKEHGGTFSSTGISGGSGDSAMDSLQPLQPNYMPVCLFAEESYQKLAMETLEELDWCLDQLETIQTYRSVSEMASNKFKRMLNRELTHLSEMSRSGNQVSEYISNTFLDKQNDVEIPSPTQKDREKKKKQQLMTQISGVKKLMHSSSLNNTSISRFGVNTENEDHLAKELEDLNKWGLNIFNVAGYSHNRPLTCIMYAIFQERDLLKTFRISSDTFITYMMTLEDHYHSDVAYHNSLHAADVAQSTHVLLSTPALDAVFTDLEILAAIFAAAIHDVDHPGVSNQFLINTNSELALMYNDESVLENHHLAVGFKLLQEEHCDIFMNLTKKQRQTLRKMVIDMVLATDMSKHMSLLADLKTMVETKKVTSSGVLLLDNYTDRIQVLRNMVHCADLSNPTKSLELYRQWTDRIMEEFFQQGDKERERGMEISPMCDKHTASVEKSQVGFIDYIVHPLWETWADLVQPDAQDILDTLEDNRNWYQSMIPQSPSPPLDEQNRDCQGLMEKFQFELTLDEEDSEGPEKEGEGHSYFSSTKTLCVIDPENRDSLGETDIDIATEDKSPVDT
Experimental: Inhibition of PDE4B4 Enzyme Activity
The inhibitory activity of test compounds were determined using the PDE Glo Assay (Promega, V1361). The PDE-Glo Reaction Buffer was prepared (1 mL 5× buffer+4 mL water) and 150 nM solution of test compound dissolved in the Reaction Buffer, followed by 1:3 serial dilutions into Reaction Buffer. […] Human recombinant PDE4B2 (BPS Bioscience) was added to test compound in Reaction Buffer at a concentration of 0.12 nM per reaction. The enzyme and test compound were pre-incubated together at rt for 10 min. 50 nM of the enzyme substrate cAMP was then added to initiate the enzyme reaction, with the reaction terminated after one hour. Termination Buffer (1 mL 5× termination buffer+3.9 mL water+100 μL of 100 mM IBMX (ICN Chemicals, in DMSO)), was added to each reaction well to terminate the reaction. Detection Buffer (1 mL 5×PDE-Glo Detection buffer+3.96 mL water+40 μL PKA (supplied in kit)) was added to the cAMP-enzyme-test compound mix and this secondary reaction proceeded for 20 minutes at rt. An equal volume of Kinase Glo Reagent was then added to the reaction mixture and after 10 min luminescence was measured using a luminometer (EnVision, 0.1 sec read for luminescence). Luminescence values were […] related to levels of cAMP in the reaction mixture. Data were plotted as relative light units (RLU) versus test compound concentration and the IC50 determined using GraphPad Prism 5.0, using a nonlinear curve fit in a single-site binding model.
IC50 determinations for the compounds presented above are seen in the first column of Table 1 (PDE4 IC50).

[2] = target: T2, human recombinant beta-2 adrenoreceptors (Homo sapiens, UniProt P07550); experiment: Beta-2 adrenoceptor binding assay, displacement of [3H](−)CGP-12177; settings: CHO cells expressing human beta-2 adrenoreceptors, [3H](−)CGP-12177 0.3 nM, 120 min
T2 construct: expressed in transfected cells; host or cells: CHO cells
T2 sequence (P07550 whole entry): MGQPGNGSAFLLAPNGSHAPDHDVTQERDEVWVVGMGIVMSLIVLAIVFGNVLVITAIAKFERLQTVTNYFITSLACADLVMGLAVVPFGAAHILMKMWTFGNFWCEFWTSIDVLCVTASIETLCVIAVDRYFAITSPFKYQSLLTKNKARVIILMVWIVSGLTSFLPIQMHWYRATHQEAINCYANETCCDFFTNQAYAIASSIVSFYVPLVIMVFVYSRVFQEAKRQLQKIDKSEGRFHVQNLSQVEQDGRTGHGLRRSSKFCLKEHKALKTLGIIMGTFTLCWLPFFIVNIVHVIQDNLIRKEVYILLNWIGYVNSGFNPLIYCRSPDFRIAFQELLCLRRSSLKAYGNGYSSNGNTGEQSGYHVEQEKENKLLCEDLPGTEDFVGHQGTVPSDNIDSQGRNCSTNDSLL
Experimental: Beta-2 Adrenoceptor Binding Assay
Test compounds were incubated for 120 min with Chinese hamster oocyte (CHO) cells expressing the human recombinant beta-2 adrenoreceptors. Binding of test compounds to the beta-2 adrenoreceptors was determined by measuring the displacement of the radiolabeled ligand [^3H](−)CGP-12177 (0.3 nM) from the receptor measured by a scintillation counting. Concentration response curves were generated for test compounds and the IC50 (molar concentration of the compound which produced 50% inhibition for the maximal response for that compound) was determined. These assays were performed using a protocol based on the original description of the assay by Joseph et al., (2004) Naun.-Sch. Arch. Pharm.; 369:525-532.
IC50 determinations for the compounds presented above are seen in the second column of Table 1 (Beta 2 IC50).

[3] = target: T2, human recombinant beta-2 adrenoreceptors; experiment: Functional agonism of human recombinant beta-2 adrenoreceptors expressed in CHO cells (cAMP, HTRF); format: cell-based; settings: cAMP elevation, 30 min
Experimental: Functional Agonism of Human Recombinant Beta-2 Adrenoreceptors Expressed in Chinese Hamster Oocytes (CHO)
Test compounds were incubated for 30 min with CHO cells expressing the human recombinant beta-2 adrenoreceptors. Agonism of the receptor was measured by the elevation of intracellular cyclic-AMP over control levels detected using a homogeneous time resolved fluorescence (HTRF) format. Compounds were determined to be “full” or “partial” agonists based on the maximum level of cAMP accumulated compared to the control compound isoproterenol which is a full agonist in this assay system. Concentration response curves were generated for test compounds and the EC50 (molar concentration of the agonist which produced 50% of the maximal response for that compound) was determined. These assays were performed using a protocol based on the original description of the assay by Baker, J. G. (2005) Brit. J. Pharmacol.; 144:317-322.
EC50 determinations for the compounds presented above are seen in the third column of Table 1 (Beta 2 EC50).

SMILES: CCc1nc2c(cnn2CC)c(NC2CCOCC2)c1CNC(=O)Nc1ccc(CCCCCNC[C@H](O)c2ccc(O)c3[nH]c(=O)ccc23)cc1 [Example 12, (R)-1-((1,6-diethyl-4-((tetrahydro-2H-pyran-4-yl)amino)-1H-pyrazolo[3,4-b]pyridin-5-yl)methyl)-3-(4-(5-((2-hydroxy-2-(8-hydroxy-2-oxo-1,2-dihydroquinolin-5-yl)ethyl)amino)pentyl)phenyl)urea]
- pEC50 [1]: > 7.00
- pIC50 (Human recombinant PDE4B2): > 7.00
- pIC50 [2]: > 7.00
- pEC50 [3]: > 7.00

SMILES: CCc1nc2c(cnn2CC)c(NC2CCOCC2)c1CNC(=O)Nc1ccc(C#CCCCNC[C@H](O)c2ccc(O)c3[nH]c(=O)ccc23)cc1 [Example 11]
- pEC50 [1]: > 7.00
- pIC50 (Human recombinant PDE4B2): > 7.00
- pIC50 [2]: > 7.00
- pEC50 [3]: > 7.00

SMILES: CCc1nc2c(cnn2CC)c(NC2CCOCC2)c1CNC(=O)c1ccc(CNC[C@H](O)c2ccc(O)c(CO)c2)cc1 [Example 8, (R)—N-[[1,6-diethyl-4-[(tetrahydro-2H-pyran-4-yl)amino]-1H-pyrazolo[3,4-b]pyridin-5-yl]methyl]-4-[[[2-hydroxy-2-[4-hydroxy-3-(hydroxymethyl)phenyl]ethyl]amino]methyl]benzamide]
- pEC50 [1]: > 6.52
- pIC50 (Human recombinant PDE4B2): > 7.00
- pIC50 [2]: < 6.52
- pEC50 [3]: < 6.52

SMILES: CCc1nc2c(cnn2CC)c(NC2CCOCC2)c1CNC(=O)c1cccc(CNC[C@H](O)c2ccc(O)c3[nH]c(=O)ccc23)c1 [Example 5, (R)—N-[[1,6-Diethyl-4-[(tetrahydro-2H-pyran-4-yl)amino]-1H-pyrazolo[3,4-b]pyridin-5-yl]methyl]-3-[[[2-hydroxy-2-(8-hydroxy-2-oxo-1,2-dihydroquinolin-5-yl)ethyl]amino]methyl]benzamide]
- pEC50 [1]: > 7.00
- pIC50 (Human recombinant PDE4B2): > 7.00
- pIC50 [2]: > 6.52
- pEC50 [3]: > 7.00

SMILES: CCc1nc2c(cnn2CC)c(NC2CCOCC2)c1CNC(=O)c1cccc(CC(C)NC[C@H](O)c2ccc(O)c(CO)c2)c1 (stereo partly drawn) [Example 2, N-[[1,6-Diethyl-4-[(tetrahydro-2H-pyran-4-yl)amino]-1H-pyrazolo[3,4-b]pyridin-5-yl]methyl]-3-[2-[[(R)-2-hydroxy-2-[4-hydroxy-3-(hydroxymethyl)phenyl]ethyl]amino]propyl]benzamide]
- pEC50 [1]: > 7.00
- pIC50 (Human recombinant PDE4B2): > 7.00
- pIC50 [2]: < 6.52
- pEC50 [3]: > 7.00

SMILES: CCc1nc2c(cnn2CC)c(NC2CCOCC2)c1CNC(=O)CCCCCCCNC[C@H](O)c1ccc(O)c2[nH]c(=O)ccc12 [Example 10, (R)—N-[[1,6-Diethyl-4-[(tetrahydro-2H-pyran-4-yl)amino]-1H-pyrazolo[3,4-b]pyridin-5-yl]methyl]-8-[[2-hydroxy-2-(8-hydroxy-2-oxo-1,2-dihydroquinolin-5-yl)ethyl]amino]octanamide]
- pEC50 [1]: > 7.00
- pIC50 (Human recombinant PDE4B2): > 7.00
- pIC50 [2]: < 6.52
- pEC50 [3]: > 7.00

SMILES: CCc1nc2c(cnn2CC)c(NC2CCOCC2)c1CNC(=O)Nc1ccc(C#CCCCNC[C@H](O)c2ccc(O)c3c2OCC(=O)N3)cc1 [Example 15]
- pEC50 [1]: > 7.00
- pIC50 [2]: > 7.00
- pEC50 [3]: > 7.00

SMILES: CCc1nc2c(cnn2CC)c(NC2CCOCC2)c1CNC(=O)c1cccc(CC(C)(C)NC[C@H](O)c2ccc(O)c(CO)c2)c1 [Example 3, (R)—N-[[1,6-Diethyl-4-[(tetrahydro-2H-pyran-4-yl)amino]-1H-pyrazolo[3,4-b]pyridin-5-yl]methyl]-3-[2-[[2-hydroxy-2-[4-hydroxy-3-(hydroxymethyl)phenyl]ethyl]amino]-2-methylpropyl]benzamide]
- pEC50 [1]: > 7.00
- pIC50 (Human recombinant PDE4B2): > 7.00
- pIC50 [2]: > 6.52
- pEC50 [3]: > 6.52

SMILES: CCc1nc2c(cnn2CC)c(NC2CCOCC2)c1CNC(=O)c1cccc(CC(C)NC[C@H](O)c2ccc(O)c3[nH]c(=O)ccc23)c1 (stereo partly drawn) [Example 1, N-[[1,6-Diethyl-4-[(tetrahydro-2H-pyran-4-yl)amino]-1H-pyrazolo[3,4-b]pyridin-5-yl]methyl]-3-[2-[[(R)-2-hydroxy-2-(8-hydroxy-2-oxo-1,2-dihydroquinolin-5-yl)ethyl]amino]propyl]benzamide]
- pEC50 [1]: > 7.00
- pIC50 (Human recombinant PDE4B2): > 7.00
- pIC50 [2]: > 7.00
- pEC50 [3]: > 7.00

SMILES: CCc1nc2c(cnn2CC)c(NC2CCOCC2)c1CNC(=O)c1cccc(CNC[C@H](O)c2ccc(O)c(CO)c2)c1 [Example 7, (R)—N-[[1,6-Diethyl-4-[(tetrahydro-2H-pyran-4-yl)amino]-1H-pyrazolo[3,4-b]pyridin-5-yl]methyl]-3-[[[2-hydroxy-2-[4-hydroxy-3-(hydroxymethyl)phenyl]ethyl]amino]methyl]benzamide]
- pEC50 [1]: < 6.52
- pIC50 (Human recombinant PDE4B2): > 7.00
- pIC50 [2]: < 6.52
- pEC50 [3]: < 6.52

SMILES: CCc1nc2c(cnn2CC)c(NC2CCOCC2)c1CNc1c(Nc2ccc(CCCCCNC[C@H](O)c3ccc(O)c4[nH]c(=O)ccc34)cc2)c(=O)c1=O [Example 13, (R)-3-(((1,6-diethyl-4-((tetrahydro-2H-pyran-4-yl)amino)-1H-pyrazolo[3,4-b]pyridin-5-yl)methyl)amino)-4-((4-(5-((2-hydroxy-2-(8-hydroxy-2-oxo-1,2-dihydroquinolin-5-yl)ethyl)amino)pentyl)phenyl)amino)cyclobut-3-ene-1,2-dione]
- pEC50 [1]: > 7.00
- pIC50 [2]: > 7.00
- pEC50 [3]: > 7.00

SMILES: CCc1nc2c(cnn2CC)c(NC2CCOCC2)c1CNC(=O)c1ccc(CNC[C@H](O)c2ccc(O)c3[nH]c(=O)ccc23)cc1 [Example 6, (R)—N-[[1,6-diethyl-4-[(tetrahydro-2H-pyran-4-yl)amino]-1H-pyrazolo[3,4-b]pyridin-5-yl]methyl]-4-[[[2-hydroxy-2-(8-hydroxy-2-oxo-1,2-dihydroquinolin-5-yl]ethyl]amino]methyl]benzamide]
- pEC50 [1]: > 7.00
- pIC50 (Human recombinant PDE4B2): > 7.00
- pIC50 [2]: < 6.52
- pEC50 [3]: > 7.00

SMILES: CCc1nc2c(cnn2CC)c(NC2CCOCC2)c1CNC(=O)Nc1ccc(CCCCOCCCCCCNC[C@H](O)c2ccc(O)c3[nH]c(=O)ccc23)cc1 [Example 14, (R)-1-((1,6-diethyl-4-((tetrahydro-2H-pyran-4-yl)amino)-1H-pyrazolo[3,4-b]pyridin-5-yl)methyl)-3-(4-(4-((6-((2-hydroxy-2-(8-hydroxy-2-oxo-1,2-dihydroquinolin-5-yl)ethyl)amino)hexyl)oxy)butyl)phenyl)urea]
- pEC50 [1]: > 7.00
- pIC50 [2]: > 7.00
- pEC50 [3]: > 7.00

Source: patent publication US8367829B2, “Bi-functional pyrazolopyridine compounds” (Gilead Sciences, Inc., priority 2010, dated 2013)
